This is an account of results in patent US9314046B2, “Flavor-improving method” (TAKASAGO INTERNATIONAL CORPORATION, priority 2011, dated 2016).

The nature of the assay: Evaluation of flavor-improving effects by addition of γ-aminobutyric acid and naringenin (sensory, 3 evaluators). The format is in vivo. Also on record: key to Evaluation (grade): VP (very poor): worse than base; P (poor): difference from base not acknowledged, insufficient effects; G (good): different from base, favorable flavor; E (excellent): significantly different from base, very favorable flavor. As for the experimental part: (1) Evaluation of Flavor-Improving Effects by Addition of γ-Aminobutyric Acid and Naringenin
To a base of a 0.05% aqueous solution of Rebaudio J-100, γ-aminobutyric acid (product name: 4-amino-n-butyric acid, produced by Nacalai Tesque, Inc.) and naringenin (product name: Naringenin, produced by LKT Laboratories, Inc.) were individually added in the amounts as described in the following table, and the flavor-improving effects thereof were evaluated.

Setting [1] is: naringenin alone 0.0010 ppb in base.
Where [2] appears, read: naringenin alone 0.0100 ppb in base.
[3] abbreviates: naringenin alone 460.0000 ppb in base.

As to `NCCCC(=O)O` [GABA, γ-aminobutyric acid], the “Evaluation (comment in words)” value (GABA alone 0.0100 ppb in base) is given as “Not different from base”, the “Evaluation (comment in words)” value (GABA alone 0.1000 ppb in base) is listed as “Not different from base” and the “Evaluation (comment in words)” value (GABA alone 1.0000 ppb in base) is “Reduced total taste”. The “Evaluation (grade)” value reads like this: (GABA alone 0.0100 ppb in base) “P”; (GABA alone 0.1000 ppb in base) “P”; (GABA alone 1.0000 ppb in base) “P”; (GABA alone 10.0000 ppb in base) “P”; (GABA alone 100.0000 ppb in base) “P”; (GABA alone 500.0000 ppb in base) “P”. Besides, the “Evaluation (grade)” value is “VP” (GABA alone 1000.0000 ppb in base) and “VP” (GABA alone 10000.0000 ppb in base).
Turning to `O=C1C[C@@H](c2ccc(O)cc2)Oc2cc(O)cc(O)c21` [naringenin], the “Evaluation (comment in words)” value by setting is: under setting [1], “Not different from base”; under setting [2], “Not different from base”; under setting [3], “Bitterness left in mouth”. Further, the “Evaluation (grade)” value runs as follows: under setting [1], “P”; under setting [2], “P”; (naringenin alone 0.1000 ppb in base) “P”; (naringenin alone 1.0000 ppb in base) “P”; (naringenin alone 10.0000 ppb in base) “P”; under setting [3], “P”. The “Evaluation (grade)” value is, setting by setting: (naringenin alone 1000.0000 ppb in base) “P”; (naringenin alone 10000.0000 ppb in base) “P”.
